pIC50: −log10 of the molar value.
What was measured:
[1] = target: T1, Human Calpain 2/NS1 (Homo sapiens, UniProt P17655); experiment: Calpain inhibition continuous fluorescence (FRET) assay, Human Calpain 2/NS1; format: biochemical; settings: Column B; read-out: Human Calpain 2/NS1 IC50
T1 sequence (P17655 1-700): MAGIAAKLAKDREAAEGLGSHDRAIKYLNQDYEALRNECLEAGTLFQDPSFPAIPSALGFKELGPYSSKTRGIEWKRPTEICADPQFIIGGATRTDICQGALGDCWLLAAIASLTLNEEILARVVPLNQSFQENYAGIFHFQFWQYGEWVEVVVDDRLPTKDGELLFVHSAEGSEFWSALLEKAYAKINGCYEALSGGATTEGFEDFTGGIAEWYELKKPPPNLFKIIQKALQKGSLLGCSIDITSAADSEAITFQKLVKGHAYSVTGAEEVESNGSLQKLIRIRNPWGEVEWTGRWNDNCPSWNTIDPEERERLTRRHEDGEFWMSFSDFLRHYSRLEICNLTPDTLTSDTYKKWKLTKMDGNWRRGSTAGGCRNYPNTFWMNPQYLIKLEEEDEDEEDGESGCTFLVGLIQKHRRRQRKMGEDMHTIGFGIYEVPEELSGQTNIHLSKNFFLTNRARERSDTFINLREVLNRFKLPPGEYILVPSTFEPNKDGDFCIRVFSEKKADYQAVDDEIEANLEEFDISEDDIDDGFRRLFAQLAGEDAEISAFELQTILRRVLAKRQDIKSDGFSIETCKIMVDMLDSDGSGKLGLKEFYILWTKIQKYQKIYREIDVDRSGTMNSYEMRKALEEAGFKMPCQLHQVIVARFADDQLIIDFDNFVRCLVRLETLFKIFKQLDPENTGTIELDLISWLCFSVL
T1 sequence (P04632 1-268 partner): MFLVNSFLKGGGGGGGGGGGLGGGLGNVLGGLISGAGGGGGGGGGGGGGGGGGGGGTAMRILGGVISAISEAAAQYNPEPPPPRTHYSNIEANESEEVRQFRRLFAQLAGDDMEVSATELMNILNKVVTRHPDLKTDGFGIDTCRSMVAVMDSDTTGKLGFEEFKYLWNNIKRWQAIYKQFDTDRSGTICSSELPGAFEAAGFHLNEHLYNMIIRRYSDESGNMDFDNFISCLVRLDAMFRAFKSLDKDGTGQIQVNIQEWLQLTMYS
How it was run: (§1)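 Inhibitors were preincubated with calpain in 50 mM Tris pH 7.5, 100 mM NaCl, 1 mM DTT at 25C. Reactions were started with 5-FAM/QXL 520 FRET peptide substrate plus CaCl2 and read at 490/520 nm for 10 min. IC50s came from 4-parameter fits of slope rates (1-5 min).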

[2] = test system: Calpain activity in SH-SY5Y cells; experiment: SH-SY5Y + AMC fluorescence assay (Suc-LLVY-AMC substrate); format: cell-based; settings: Column E, read-out: SH-SY5Y + AMC IC50
[3] = target: T2, Human Calpain 9/NS1 (Homo sapiens, UniProt O14815); experiment: Calpain inhibition continuous fluorescence (FRET) assay, Human Calpain 9/NS1; format: biochemical; settings: Column C; read-out: Human Calpain 9/NS1 IC50
T2 sequence (O14815 1-690): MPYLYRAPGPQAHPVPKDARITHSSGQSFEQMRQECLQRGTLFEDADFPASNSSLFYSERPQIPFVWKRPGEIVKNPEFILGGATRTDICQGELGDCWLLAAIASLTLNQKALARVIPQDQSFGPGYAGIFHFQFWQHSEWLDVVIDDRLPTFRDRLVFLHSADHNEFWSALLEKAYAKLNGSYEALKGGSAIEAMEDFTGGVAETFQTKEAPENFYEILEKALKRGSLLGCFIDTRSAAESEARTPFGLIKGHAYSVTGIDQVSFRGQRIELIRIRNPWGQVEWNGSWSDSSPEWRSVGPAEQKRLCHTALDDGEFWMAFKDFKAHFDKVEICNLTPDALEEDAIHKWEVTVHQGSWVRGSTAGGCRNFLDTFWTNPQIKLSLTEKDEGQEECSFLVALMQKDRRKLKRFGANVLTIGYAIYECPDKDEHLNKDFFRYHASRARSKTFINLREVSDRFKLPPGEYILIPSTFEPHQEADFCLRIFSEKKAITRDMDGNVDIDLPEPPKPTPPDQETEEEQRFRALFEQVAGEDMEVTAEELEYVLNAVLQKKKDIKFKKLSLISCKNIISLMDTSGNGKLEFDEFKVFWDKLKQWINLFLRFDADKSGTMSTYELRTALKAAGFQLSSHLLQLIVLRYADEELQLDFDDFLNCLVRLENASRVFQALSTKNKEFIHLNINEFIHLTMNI
T2 sequence (P04632 1-268 partner): T1 sequence (P04632 1-268 partner)
How it was run: as §1

[4] = target: T3, Human Calpain 1/NS1 (Homo sapiens, UniProt P07384); experiment: Calpain inhibition continuous fluorescence (FRET) assay, Human Calpain 1/NS1; format: biochemical; settings: Column A; read-out: Human Calpain 1/NS1 IC50
T3 sequence (P07384 1-714): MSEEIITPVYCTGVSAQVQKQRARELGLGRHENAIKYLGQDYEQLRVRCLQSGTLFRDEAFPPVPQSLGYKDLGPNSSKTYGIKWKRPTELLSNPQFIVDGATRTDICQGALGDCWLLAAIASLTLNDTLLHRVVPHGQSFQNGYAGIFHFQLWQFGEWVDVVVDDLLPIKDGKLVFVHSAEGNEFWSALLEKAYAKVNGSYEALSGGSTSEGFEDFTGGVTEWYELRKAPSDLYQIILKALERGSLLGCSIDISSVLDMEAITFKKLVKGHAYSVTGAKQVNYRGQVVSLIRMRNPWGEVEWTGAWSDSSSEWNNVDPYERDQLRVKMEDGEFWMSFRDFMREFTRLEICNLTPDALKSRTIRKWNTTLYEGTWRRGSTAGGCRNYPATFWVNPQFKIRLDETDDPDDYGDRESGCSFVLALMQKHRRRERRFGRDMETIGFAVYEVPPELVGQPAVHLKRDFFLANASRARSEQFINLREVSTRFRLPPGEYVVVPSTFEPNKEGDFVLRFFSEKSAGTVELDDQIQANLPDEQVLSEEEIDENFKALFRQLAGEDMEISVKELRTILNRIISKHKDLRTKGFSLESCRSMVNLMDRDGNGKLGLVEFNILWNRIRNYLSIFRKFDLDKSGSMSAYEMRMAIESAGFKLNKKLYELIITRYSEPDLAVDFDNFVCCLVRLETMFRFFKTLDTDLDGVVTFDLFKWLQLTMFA
T3 sequence (P04632 1-268 partner): T1 sequence (P04632 1-268 partner)
How it was run: as §1

[5] = test system: Calpain activity in SH-SY5Y cells (SBDP-150); experiment: SH-SY5Y Spectrin western blot assay (SBDP-150 breakdown product, A23187-induced); format: cell-based; settings: Homo sapiens; Column D; SH-SY5Y cells, A23187-induced SBDP-150; read-out: SH-SY5Y Spectrin IC50

Row | Compound | pIC50 [1] | pIC50 [2] | pIC50 [3] | pIC50 [4] | pIC50 [5]
1 | Cc1noc(-c2ccccc2)c1C(=O)N[C@@H](Cc1ccccc1)C(=O)C(N)=O [Compound 23, (S)—N-(4-amino-3,4-dioxo-1-phenylbutan-2-yl)-3-methyl-5-phenylisoxazole-4-carboxamide] | > 5.52 | < 4.60 | > 5.52 | > 5.52 | 4.60 to 5.00
2 | NC(=O)C(=O)[C@H](Cc1ccccc1)NC(=O)c1cncn1-c1ccccn1 [Compound 24, (S)—N-(4-amino-3,4-dioxo-1-phenylbutan-2-yl)-1-(pyridin-2-yl)-1H-imidazole-5-carboxamide] | > 5.52 | < 4.60 | > 5.52 | > 5.52 | < 4.60
3 | Cc1nc(-c2ccccc2)c(C(=O)N[C@@H](Cc2ccccc2)C(=O)C(N)=O)o1 [Compound 26, (S)—N-(4-amino-3,4-dioxo-1-phenylbutan-2-yl)-2-methyl-4-phenyloxazole-5-carboxamide] | > 5.52 | > 5.00 | > 5.52 | > 5.52 | > 5.00
4 | Cc1onc(-c2ccccc2)c1C(=O)N[C@@H](Cc1ccccc1)C(=O)C(N)=O [Compound 27, (S)—N-(4-amino-3,4-dioxo-1-phenylbutan-2-yl)-5-methyl-3-phenylisoxazole-4-carboxamide] | > 5.52 | < 4.60 | > 5.52 | > 5.52 | 4.60 to 5.00
5 | NC(=O)C(=O)[C@H](Cc1ccccc1)NC(=O)c1nnsc1-c1ccccc1 [Compound 28, (S)—N-(4-amino-3,4-dioxo-1-phenylbutan-2-yl)-5-phenyl-1,2,3-thiadiazole-4-carboxamide] | > 5.52 | > 5.00 | > 5.52 | > 5.52 | > 5.00
6 | NC(=O)C(=O)[C@H](Cc1ccccc1)NC(=O)c1c[nH]nc1-c1ccccc1 [Compound 30, (S)—N-(4-amino-3,4-dioxo-1-phenylbutan-2-yl)-3-phenyl-1H-pyrazole-4-carboxamide] | > 5.52 | 4.60 to 5.00 | > 5.52 | > 5.52 | > 5.00
7 | Cn1ncc(C(=O)N[C@@H](Cc2ccccc2)C(=O)C(N)=O)c1-c1ccccc1 [Compound 45, (S)—N-(4-amino-3,4-dioxo-1-phenylbutan-2-yl)-1-methyl-5-phenyl-1H-pyrazole-4-carboxamide] | > 5.52 | 4.60 to 5.00 | > 5.52 | > 5.52 | < 4.60
8 | NC(=O)C(=O)[C@H](Cc1ccccc1)NC(=O)c1cncn1-c1nc2ccccc2s1 [Compound 50, (S)—N-(4-amino-3,4-dioxo-1-phenylbutan-2-yl)-1-(benzo[d]thiazol-2-yl)-1H-imidazole-5-carboxamide] | > 5.52 | < 4.60 | > 5.52 | > 5.52 | > 5.00

Now from value to molecule:

Row | pIC50 [1] | pIC50 [2] | pIC50 [3] | pIC50 [4] | pIC50 [5] | Compound
9 | > 5.52 | > 5.00 | > 5.52 | > 5.52 | 4.60 to 5.00 | Cc1cc(C(=O)N[C@@H](Cc2ccccc2)C(=O)C(N)=O)n(-c2ccccn2)n1 [Compound 12, (S)—N-(4-amino-3,4-dioxo-1-phenylbutan-2-yl)-3-methyl-1-(pyridin-2-yl)-1H-pyrazole-5-carboxamide]
10 | > 5.52 | 4.60 to 5.00 | > 5.52 | > 5.52 | > 5.00 | Cc1cc(C(=O)N[C@@H](Cc2ccccc2)C(=O)C(N)=O)n(-c2ccc3ccccc3n2)n1 [Compound 15, (S)—N-(4-amino-3,4-dioxo-1-phenylbutan-2-yl)-3-methyl-1-(quinolin-2-yl)-1H-pyrazole-5-carboxamide]
11 | > 5.52 | 4.60 to 5.00 | > 5.52 | > 5.52 | 4.60 to 5.00 | Cc1cc(C(=O)N[C@@H](Cc2ccccc2)C(=O)C(N)=O)n(-c2cccc(-c3ccccc3)c2)n1 [Compound 16, (S)-1-([1,1′-biphenyl]-3-yl)-N-(4-amino-3,4-dioxo-1-phenylbutan-2-yl)-3-methyl-1H-pyrazole-5-carboxamide]
12 | > 5.52 | < 4.60 | > 5.52 | > 5.52 | > 5.00 | Cc1cc(C(=O)N[C@@H](Cc2ccccc2)C(=O)C(N)=O)n(-c2ccc(S(C)(=O)=O)cc2)n1 [Compound 17, (S)—N-(4-amino-3,4-dioxo-1-phenylbutan-2-yl)-3-methyl-1-(4-(methylsulfonyl)phenyl)-1H-pyrazole-5-carboxamide]
13 | > 5.52 | < 4.60 | > 5.52 | > 5.52 | 4.60 to 5.00 | Cc1cc(C(=O)N[C@@H](Cc2ccccc2)C(=O)C(N)=O)n(-c2ccc(OC(F)(F)F)cc2)n1 [Compound 19, (S)—N-(4-amino-3,4-dioxo-1-phenylbutan-2-yl)-3-methyl-1-(4-(trifluoromethoxy)phenyl)-1H-pyrazole-5-carboxamide]
14 | > 5.52 | > 5.00 | > 5.52 | > 5.52 | > 5.00 | CCc1cc(C(=O)N[C@@H](Cc2ccccc2)C(=O)C(N)=O)n(-c2ccccc2)n1 [Compound 33, (S)—N-(4-amino-3,4-dioxo-1-phenylbutan-2-yl)-3-ethyl-1-phenyl-1H-pyrazole-5-carboxamide]
15 | > 5.52 | > 5.00 | > 5.52 | > 5.52 | > 5.00 | Cc1cc(C(=O)N[C@@H](Cc2ccccc2)C(=O)C(N)=O)n(-c2ncccn2)n1 [Compound 49, (S)—N-(4-amino-3,4-dioxo-1-phenylbutan-2-yl)-3-methyl-1-(pyrimidin-2-yl)-1H-pyrazole-5-carboxamide]

Source: patent publication US11339130B1 (Blade Therapeutics, Inc., priority 2016, dated 2022)
